Source: patent US20100292231A1, “Indazole Compounds for Treating Inflammatory Disorders, Demyelinating Disorders and Cancers” (priority 2007, published 2010)

Key:
[1] = tested on: U266B1 (multiple myeloma) cell line; test: sulforhodamine B (SRB) cytotoxicity assay; type: cell-based; conditions: 72 h, 100 μM highest concentration, diluted 1:5, 3 day incubation, read-out: IC50 Measured Against U266B1 Cell Line
Protocol: (§1) The cytotoxic activity of compounds listed in Table 5 was determined with a sulforhodamine B (SRB) assay on panel of cell lines, including MdaMb231 (breast cancer), MV4-11 (leukemia), PC-3 (prostate cancer), U266B1 (multiple myeloma), C7 macrophages, and Raw264.7 (murine macrophage-like cells).
(§2) Cells growing in relevant media were seeded in a 96 well plate and left to adhere overnight. Cells were plated at appropriate cell densities: • MV4-11: 20.000 cells/well • Mda-Mb231: 6000 cells/well • C7: 10.000 cells/well • Raw264.7: 2000 cells/well • PC-3: 6000 cells/well • U266B1: 40.000 cells/well.
(§3) Cells were incubated before the compounds were added the next day to a top concentration of 100 μM and serially diluted 1 in 5 across the plate. After a 3 day incubation period (6 days for C7 and Raw264.7) cells were fixed with trichloroacetic acid (TCA) to end concentration of 10% for adherent cells and 16% end concentration for suspension cells for 1 hr at 4° C. before washing. Cells were stained with 0.4% sulforhodamine-B dye (SRB) in 1% acetic acid for 30 minutes and washed in 1% acetic acid. To solubilize the dye 100 μl 10 mM Tris, pH 10.5 was added and the absorbance was read at 564 nm. IC50 values were generated using the SoftMAX Pro™ software. The data is presented below in Tables 6 through 11.

FLT3 = molecular target: T1, FLT3 (Homo sapiens, UniProt P36888); test: Kinase EC50 (10 pt curve or estimate, ATP Kmapp); type: biochemical; conditions: from 10 pt curve or estimate based on 1 μm inhibition assay at ATP Kmapp
T1 construct: purchased Invitrogen (SelectScreen platform)
T1 sequence (P36888 27-993): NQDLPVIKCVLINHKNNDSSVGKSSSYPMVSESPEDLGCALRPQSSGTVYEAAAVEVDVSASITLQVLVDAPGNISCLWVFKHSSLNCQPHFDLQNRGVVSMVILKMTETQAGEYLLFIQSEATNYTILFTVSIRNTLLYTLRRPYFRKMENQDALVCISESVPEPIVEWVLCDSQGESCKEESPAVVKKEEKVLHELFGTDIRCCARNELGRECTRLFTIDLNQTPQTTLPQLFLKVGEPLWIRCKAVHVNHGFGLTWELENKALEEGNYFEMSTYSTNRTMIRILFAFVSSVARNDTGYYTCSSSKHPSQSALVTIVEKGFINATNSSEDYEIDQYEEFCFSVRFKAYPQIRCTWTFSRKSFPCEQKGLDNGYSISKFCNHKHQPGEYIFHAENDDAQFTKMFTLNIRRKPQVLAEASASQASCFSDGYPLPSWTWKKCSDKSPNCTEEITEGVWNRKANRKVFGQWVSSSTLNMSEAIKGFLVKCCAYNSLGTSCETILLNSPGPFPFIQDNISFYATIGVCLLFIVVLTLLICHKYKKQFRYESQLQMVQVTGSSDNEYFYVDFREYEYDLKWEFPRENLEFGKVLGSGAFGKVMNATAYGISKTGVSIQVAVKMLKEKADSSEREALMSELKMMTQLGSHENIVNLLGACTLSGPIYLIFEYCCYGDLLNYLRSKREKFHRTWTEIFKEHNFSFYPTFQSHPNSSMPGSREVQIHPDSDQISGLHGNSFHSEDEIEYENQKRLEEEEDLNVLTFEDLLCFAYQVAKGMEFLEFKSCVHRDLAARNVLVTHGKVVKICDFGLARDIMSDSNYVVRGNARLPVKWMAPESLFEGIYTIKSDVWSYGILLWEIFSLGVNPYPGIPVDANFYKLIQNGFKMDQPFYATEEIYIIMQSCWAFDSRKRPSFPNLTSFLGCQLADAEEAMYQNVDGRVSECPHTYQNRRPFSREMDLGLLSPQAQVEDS

[2] = tested on: Raw264.7 (murine macrophage-like cells); test: sulforhodamine B (SRB) cytotoxicity assay; type: cell-based; conditions: Mus musculus, RAW264.7, 144 h; 25 μM highest concentration, diluted 1:5; 6 days; read-out: IC50 Measured Against Raw264.7 Cell Line
[3] = tested on: PC-3 (prostate cancer) cell line; test: sulforhodamine B (SRB) cytotoxicity assay; type: cell-based; conditions: Homo sapiens, PC-3, 72 h; 100 μM highest concentration, diluted 1:5; 3 day incubation; read-out: IC50 Measured Against PC-3 Cell Line
Protocol: as §1, §2, §3

C7 macrophages = test: sulforhodamine B (SRB) cytotoxicity assay; type: cell-based; conditions: Macrophage, 144 h; 5 μM highest concentration, diluted 1:4; 6 day assay; read-out: IC50 Measured Against C7 Cell Line (6 day assay)
Protocol: as §1, §2, §3

Row | SMILES | IC50 [1] [nM] | EC50 (FLT3) [nM] | IC50 [2] [nM] | IC50 [3] [nM] | IC50 (C7 macrophages) [nM]
1 | CN(C)CCNc1ccc2ncn3c4ccc5[nH]ncc5c4c(=O)c1c23 [(XII)] | 6110 | 5 | – | – | –
2 | CC(CCN1CCOCC1)Nc1ccc2ncn3c4ccc5[nH]ncc5c4c(=O)c1c23 (stereo not shown) [(XVI)] | 14500 | 9 | 25.7 | 8920 | –
3 | CCN(CC)CCCNc1ccc2ncn3c4ccc5[nH]ncc5c4c(=O)c1c23 [Compound (XV)] | – | 11 | – | 32800 | 13
4 | CN1CCN(CCCNc2ccc3ncn4c5ccc6[nH]ncc6c5c(=O)c2c34)CC1 [(XVII)] | – | 15 | 2.6 | 9650 | 360
5 | O=c1c2c(NCCCN3CCOCC3)ccc3ncn(c4ccc5[nH]ncc5c14)c32 [(X)] | 7060 | 11 | 2.7 | 17300 | –
6 | CCN(CC)CCNc1ccc2ncn3c4ccc(O)cc4c(=O)c1c23 [Symadex, 5-(2-(diethylamino)ethylamino)-8-hydroxy-6H-imidazo[4,5,1-de]acridin-6-one, reference compound] | – | 40 | – | – | 15
7 | CN(C)CCCNc1ccc2ncn3c4ccc5[nH]ncc5c4c(=O)c1c23 [Compound (IV)] | 6940 | 14 | – | 2970 | –
